Test: Lung tissue and plasma levels after intratracheal dosing (LC-MS/MS)
Type: in vivo
Method: Initially a time course study was performed, followed by a characterisation study with compound & clinical comparator. For both studies, rats were sensitised on day 0, 14 and 21 by an intraperitoneal (i.p.) injection of 4 mL/kg (1 mL/rat) of ovalbumin (OVA;100 μg/rat) in Imject™ Alum (20 mg/rat aluminium hydroxide and 20 mg/rat magnesium hydroxide) or sham sensitised (Saline [Sal] in Imject™ Alum). On day 28 rats were challenged with 1% (w/v) aerosolised OVA in isotonic saline, or sham challenged with isotonic saline (30 mins).
For the time course study, animals were terminally anaesthetized, via overdose i.p. with sodium pentobarbitone (200 mg/kg), 1–24 hrs post antigen challenge. For the compound study, animals were terminally anaesthetised, via overdose i.p. with sodium pentobarbitone (200 mg/kg), 2 or 24 hrs post antigen challenge. […]
50 μL plasma was protein precipitated by addition of 180 μL acetonitrile containing 0.2% formic acid & 50 nM internal standard. […] Plasma concentrations of AZD8154 were determined by liquid chromatography with tandem mass spectrometric detection (LC-MS/MS).
Lung pieces were weighed and homogenised in a 1 mL ringer solution using bead-beating technology (Bertin Technologies, Montigny le Bretonneux, France). […] Lung concentrations of AZD8154 were determined by LC-MS/MS. […]

Mean concentration in lung tissue and plasma versus dose (i.t. 0.02, 0.1, 0.3 mg/kg, 2 & 24 hrs post-challenge): increased with increasing dose | level in lung tissue compared to plasma (i.t., up to 24 hrs post-dosing): significantly higher in the lung tissue
Compound: Cc1nc(Nc2cccc(N3CCCC3=O)n2)sc1-c1cc2c(c(S(C)(=O)=O)c1)C(=O)N([C@@H](C)C1CC1)C2 [AZD8154]
